Experiments:
[1] = test system: mice treated with peptide Aβ25-35; assay: In vivo screening of derivatives as neuroprotectors (spontaneous alternation, passive avoidance, ROS level), Aβ25-35 model; settings: 0.3 mg/kg IP
Description: FIG. 7: Screening of phosphinolactones as neuroprotectors in mice treated with peptide Aβ25-35: (a) spontaneous alternation; (b) passive avoidance step-through latency; (c) Levels of reactive oxygen species in hippocampus. The mice were given compound 3b (0.3, 0.7 mg/kg IP) or a dose of each compound (0.3 mg/kg IP) 20 min before I′Aβ25-35 or the control peptide Sc.Aβ (9 nmol ICV). The animals were tested in the Y-maze on Day 7 after the ICV injections and for passive avoidance on Days 8-9, and then sacrificed. In each graph at (a-c), the 50% protection level compared with the deficit induced by Aβ25-35 is plotted as a dotted line. It is to be noted that at (a), the column represents the median and the error bars represent the deviations 25%-75% (=asymmetric deviations). n=12 at (a, b) and 5-6 at (c). ANOVA on groups 1-4: F(3.63)=7.95, p<0.001 at (b); H=24.1, p<0.0001 at (c); F(3.44)=6.33, p<0.01 at (d). *p<0.05, **p<0.01, ***p<0.001 compared with group (Sc.Aβ+V); #p<0.05, ##p<0.01, ###p<0.001 compared with group (Aβ25-35+V); Dunnett test at (a, c) and Dunn at (b). The values of the groups 5-12 (screened compounds) were analysed by t-test at (a, c) or Mann-Whitney at (b).
From the molecules derived from the synthesis, a panel of 8 derivatives was selected and screened for potential neuroprotective efficacy. The compounds were injected at a dose of 0.3 mg/kg IP, i.e. the maximum non-active dose of 3b and compared with 3b injected at 0.3 and 0.7 mg/kg IP. The compounds were injected […] before the Aß25-35 peptide, and the mice were tested for spontaneous alternation on Day 7, passive avoidance on Days 8 and 9 and the ROS level was measured in the hippocampus (FIG. 7). For each response (spontaneous alternation: FIG. 7a; step-through latency in passive avoidance: FIG. 7b, and DCF fluorescence level: FIG. 7c), a 50% level of the effect between the values of the ScAß and Aß25-35 animals was taken as criterion of efficacy. […] Compound 3c is an isomer at the position of the chlorine atom of 3b. Regarding compound 3n, this has a 5-pyrimidyl group attached to the phosphorus atom, and for compound 3l it is a 4-pyridinyl group.

[2] = test system: mice treated with scopolamine; assay: Spontaneous alternation in Y-maze, scopolamine amnesia model; format: in vivo
Description: (§1) FIG. 5: Anti-amnesic effect of compound 3b in mice treated with scopolamine: (a, b) spontaneous alternation in Y-maze, and (c, d) passive avoidance. The mice were given compound 3b (0.03-1.5 mg/kg IP) 10 min before scopolamine (0.5 mg/kg SC), 20 min before the Y-maze session or passive avoidance training. Y-maze test: (a) spontaneous alternation and (b) total number of arm entries; retention of passive avoidance: (c) step-through latency and (d) escape latency. ANOVA: F(6.94)=5.32, p<0.0001 at (a); F(6.94)=10.6, p<0.0001 at (b); H=31.4, p<0.0001 at (c); H=24.3, p<0.001 at (d); n=12-19 per group. *p<0.05, **p<0.01, ***p<0.001 compared with group (Sc.Aβ+V); #p<0.05, ##p<0.01, ###p<0.001 compared with group (Aβ25-35+V); Dunnett test at (a, b) and Dunn at (c, d).
FIG. 6: Analysis of the antagonism of anti-amnesic effects of compound 3b in mice treated with scopolamine: (a, c, e) spontaneous alternation in Y-maze, and (b, d, f) step-through latency at recall session of passive avoidance. The mice were treated with methyllycaconitine (MLA, 1 or 3 mg/kg IP), dihydro-ß-erythroidine (DHßE, 1 or 3 mg/kg IP), or NE100 (1 mg/kg IP), simultaneously with compound 3b (0.1 mg/kg IP) 10 min before scopolamine (S, 0.5 mg/kg SC), 20 min before behavioural session. ANOVA: F(5.87)=7.19, p<0.0001 at (a); H=31.3, p<0.0001 at (b); F(5.82)=5.82, p<0.0001 at (c); H=28.8, p<0.0001 at (d); F(4.77)=10.0, p<0.0001 at (e); H=30.5, p<0.0001 at (f); n=12-17 per group. *p<0.05, **p<0.01, ***p<0.001 compared with group (Sc.Aβ+V); #p<0.05, ##p<0.01, ###p<0.001 compared with group (Aβ25-35+V); Dunnett test at (a, b) and Dunn at (c, d).
The animals were tested for spontaneous alternation performance in a Y-maze, an index of spatial working memory. The Y-maze was in grey PVC. Each arm was 40 cm long, 13 cm high, 3 cm wide at the base and 10 cm wide in the upper part, and converging at an equal angle. Each mouse was placed at one end of an arm and was able to move freely through the maze during an 8-min session. The series of arm entries, including any returns in the same arm were visually analysed. Alternation is defined as being consecutive entries in three different arms. The maximum number of alternations is therefore the total number of arm entries less two, and alternation percentage is calculated as (actual alternations/maximum possible alternations)×100. […]
(§2) Finally, a first mechanistic analysis of the pharmacological effect in vivo of compound 3b was carried out. With the objective of confirming that the compound, neuroprotective against amyloid toxicity, could also be anti-amnesic in a pharmacological amnesia model, we first determined its effectiveness against the amnesic effects of scopolamine. […]

[3] = test system: mice treated with scopolamine; assay: Passive avoidance, scopolamine amnesia model; format: in vivo
Description: as §1
FIG. 6: Analysis of the antagonism of anti-amnesic effects of compound 3b in mice treated with scopolamine: (a, c, e) spontaneous alternation in Y-maze, and (b, d, f) step-through latency at recall session of passive avoidance. The mice were treated with methyllycaconitine (MLA, 1 or 3 mg/kg IP), dihydro-ß-erythroidine (DHßE, 1 or 3 mg/kg IP), or NE100 (1 mg/kg IP), simultaneously with compound 3b (0.1 mg/kg IP) 10 min before scopolamine (S, 0.5 mg/kg SC), 20 min before behavioural session. […]
The apparatus contained two compartments (15×20×15 cm in height) with one light part having walls in white PVC and the other dark with walls in black PVC and a grid floor. […] Step-through latency (STL) i.e. the time taken to enter the dark compartment and the number of cries, were recorded. […] Step-through latency was recorded up to 300 s.
as §2

mice = assay: Forced swim test; format: in vivo
Description: FIG. 13: Assays of compound 3b as positive modulator of the sigma-1 protein. […] Male Swiss mice aged 7 weeks (n=10-12 per group) were forced to swim for 15 min on Day 1 and 6 min on Day 2. They were given NE-100 (10 mg/kg ip), 10 min before compound 3b (10 mg/kg ip) and 20 min before the session of Day 2. Immobility was measured over the last 5 minutes of the session. The vehicle solution was distilled water. F(3.42)=4.45, p<0.01; **p<0.01 vs. group V/V, ##p<0.01 vs. group V/3b, Dunnet test. […] Wild-type mice (Wt, n=14-15) and S1R KO mice (n=9-10) were forced to swim 15 min on Day 1 and 6 min on Day 2. They were given compound 3b (10 mg/kg ip) 20 min before the session on Day 2. Immobility was measured during the last 5 minutes of the session. The vehicle solution was distilled water. F(3.49)=6.64, p<0.001; **p<0.01 vs. group Wt/V, Dunnett test. […] Male Swiss mice aged 7 weeks (n=8-23 per group) were forced to swim for 15 min on Day 1 and 6 min on Day 2. They were given igmesine (10, 30 mg/kg ip) and/or compound 3b (10 mg/kg ip) 20 min before the session on Day 2. NE-100 (10 mg/kg ip) was injected 10 min before igmesine and compound 3b. Immobility was measured during the last 5 minutes of the session. The vehicle solution was distilled water. F(6.90)=5.59, p<0.0001; ***p<0.001 vs. group V, ##p<0.01 vs. group V/Igmesine (10)+3B (5), Dunnett test.

[4] = test system: mice treated with Aβ25-35; settings: IP; Aβ25-35 model; cited from earlier work
[5] = antagonist at the two doses tested (1 or 3 mg/kg IP) with 3b 0.1 mg/kg IP
[6] = antagonist 1 mg/kg IP with 3b 0.1 mg/kg IP

CC1(C)COP(=O)(c2ccncc2)C(C)(C)N1 (racemic) [Compound 3l, (±)-2-(Pyridin-4-yl)-2-oxo-3,3,5,5-tetramethyl-[1,4,2]-oxazaphosphinane]
criterion of efficacy: 50% level of the effect between ScAβ and Aβ25-35 animals (spontaneous alternation, step-through latency, DCF fluorescence) [1]: met the criterion for the 3 parameters

CC1(C)COP(=O)(c2cncnc2)C(C)(C)N1 (racemic) [Compound 3n, (±)-2-(Pyrimidin-5-yl)-2-oxo-3,3,5,5-tetramethyl-[1,4,2]-oxazaphosphinane]
criterion of efficacy: 50% level of the effect between ScAβ and Aβ25-35 animals (spontaneous alternation, step-through latency, DCF fluorescence) [1]: met the criterion for the 3 parameters

CO[C@H]1CC=C2CCN3CCC4=C(CC(=O)OC4)[C@]23C1 [DhßE, dihydro-β-erythroidine]
antagonism of the anti-amnesic effect of compound 3b, spontaneous alternation [2, 5]: ineffective | antagonism of the anti-amnesic effect of compound 3b, passive avoidance [3, 5]: ineffective

CCN1C[C@]2(COC(=O)c3ccccc3N3C(=O)C[C@H](C)C3=O)CC[C@H](OC)[C@@]34[C@@H]5C[C@H]6[C@H](OC)[C@@H]5[C@](O)(C[C@@H]6OC)[C@@](O)([C@@H](OC)[C@H]23)[C@@H]14 [MLA, methyllycaconitine]
antagonism of the anti-amnesic effect of compound 3b, spontaneous alternation ([2]; antagonist 3 mg/kg IP with 3b 0.1 mg/kg IP): blocked the anti-amnesic effect of compound 3b | antagonism of the anti-amnesic effect of compound 3b, passive avoidance [3, 6]: attenuated the effect

CCCN(CCC)CCc1ccc(OC)c(OCCc2ccccc2)c1 [NE100]
blockade of the antidepressant effect of compound 3b (mice; NE-100 10 mg/kg ip, 10 min before 3b 10 mg/kg ip): blocked | antagonism of the anti-amnesic effect of compound 3b, spontaneous alternation [2, 6]: blocked the effect of compound 3b | antagonism of the anti-amnesic effect of compound 3b, passive avoidance [3, 6]: attenuated the effect

CCC(C/C=C/c1ccccc1)(c1ccccc1)N(C)CC1CC1 (centres unmarked) [igmesine]
activity in forced swim test (mice; 10 mg/kg): not active

CC12CC3CC(C)(C1)CC(N)(C3)C2 [memantine]
active dose of reference molecules in this model [4]: 1 mg/kg
